Our source for the % of control, % of inhibition and % of engagement values is ChEMBL document CHEMBL5465560, “Selectivity Literature for EUbOPEN Chemogenomic Library” (2024).

Experiment [1] concerns the target T1, Cyclin-dependent kinase 11A (Homo sapiens) (UniProt Q9UQ88).
T1 sequence (whole entry): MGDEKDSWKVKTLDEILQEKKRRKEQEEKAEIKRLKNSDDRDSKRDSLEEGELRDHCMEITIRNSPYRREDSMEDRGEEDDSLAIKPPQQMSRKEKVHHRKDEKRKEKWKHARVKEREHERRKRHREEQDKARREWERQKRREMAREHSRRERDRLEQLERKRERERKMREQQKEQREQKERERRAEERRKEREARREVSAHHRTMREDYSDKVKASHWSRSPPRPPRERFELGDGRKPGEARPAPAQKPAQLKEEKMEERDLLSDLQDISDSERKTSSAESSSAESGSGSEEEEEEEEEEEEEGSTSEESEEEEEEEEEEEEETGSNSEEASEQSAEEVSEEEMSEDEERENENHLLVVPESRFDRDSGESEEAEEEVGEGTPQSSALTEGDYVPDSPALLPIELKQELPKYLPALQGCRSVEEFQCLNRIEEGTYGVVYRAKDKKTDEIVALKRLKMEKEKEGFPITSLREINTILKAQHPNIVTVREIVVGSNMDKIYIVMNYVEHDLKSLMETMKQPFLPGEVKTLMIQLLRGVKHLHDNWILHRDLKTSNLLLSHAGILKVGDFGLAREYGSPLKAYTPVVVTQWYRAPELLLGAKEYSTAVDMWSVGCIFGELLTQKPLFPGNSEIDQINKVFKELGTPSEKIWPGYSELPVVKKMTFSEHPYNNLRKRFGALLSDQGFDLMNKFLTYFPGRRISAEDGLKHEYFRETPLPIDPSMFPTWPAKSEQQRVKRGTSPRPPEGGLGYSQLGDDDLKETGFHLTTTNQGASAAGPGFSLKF
Description: Selectivity interaction (KinomeScan (DiscoverX)) EUB0000595a CDK11A. The settings on record: at 10 µM.

Experiment [2] has as its system Mast/stem cell growth factor receptor Kit (Homo sapiens), P10721 [V559D]. Description: (§1) Selectivity interaction (KinomeScan (DiscoverX)) EUB0001619a KIT. The settings on record: at 1 µM.
Experiment [3] has as its target Mast/stem cell growth factor receptor Kit (Homo sapiens, UniProt P10721). Described as §1. The settings on record: at 1 µM.
Experiment [4] deals with Mast/stem cell growth factor receptor Kit (Homo sapiens), P10721 [A829P]. Described as §1. The settings on record: at 1 µM.
Mast/stem cell growth factor receptor Kit (Homo sapiens), P10721 [A829P], sequence (P10721 whole entry A829P): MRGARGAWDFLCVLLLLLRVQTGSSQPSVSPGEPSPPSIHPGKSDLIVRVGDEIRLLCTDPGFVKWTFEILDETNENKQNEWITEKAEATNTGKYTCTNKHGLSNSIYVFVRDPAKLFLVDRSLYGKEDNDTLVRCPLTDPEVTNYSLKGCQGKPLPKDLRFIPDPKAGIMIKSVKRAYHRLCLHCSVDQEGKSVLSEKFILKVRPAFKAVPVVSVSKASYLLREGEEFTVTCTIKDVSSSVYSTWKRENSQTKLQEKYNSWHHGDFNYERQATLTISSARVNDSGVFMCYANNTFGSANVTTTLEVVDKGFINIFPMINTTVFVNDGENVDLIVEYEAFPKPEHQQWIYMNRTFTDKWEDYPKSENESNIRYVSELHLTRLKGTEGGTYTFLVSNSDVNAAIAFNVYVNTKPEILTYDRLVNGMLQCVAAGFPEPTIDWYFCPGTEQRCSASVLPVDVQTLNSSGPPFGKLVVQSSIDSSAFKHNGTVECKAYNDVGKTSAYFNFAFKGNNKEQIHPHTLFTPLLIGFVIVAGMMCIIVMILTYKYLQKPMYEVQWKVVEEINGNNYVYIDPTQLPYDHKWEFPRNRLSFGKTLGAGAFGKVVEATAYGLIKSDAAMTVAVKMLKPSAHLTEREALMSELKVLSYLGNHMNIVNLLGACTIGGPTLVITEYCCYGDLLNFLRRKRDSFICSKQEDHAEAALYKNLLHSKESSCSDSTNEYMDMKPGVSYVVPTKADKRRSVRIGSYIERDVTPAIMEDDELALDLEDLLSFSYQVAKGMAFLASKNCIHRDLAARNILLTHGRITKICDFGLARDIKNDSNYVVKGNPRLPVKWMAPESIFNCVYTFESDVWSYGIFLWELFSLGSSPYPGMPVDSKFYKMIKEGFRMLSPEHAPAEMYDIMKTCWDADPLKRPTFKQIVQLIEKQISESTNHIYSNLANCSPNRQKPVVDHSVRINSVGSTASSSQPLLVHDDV
Experiment [5] relates to Mast/stem cell growth factor receptor Kit (Homo sapiens), P10721 [V559D,V654A]. Described as §1. The conditions noted are these: at 1 µM.
Mast/stem cell growth factor receptor Kit (Homo sapiens), P10721 [V559D,V654A], sequence (P10721 whole entry V559D/V654A): as the sequence (P10721 whole entry A829P) above, with V559D, V654A, P829A counted along it
In experiment [6] the test system is Mast/stem cell growth factor receptor Kit (Homo sapiens), P10721 [V559D,T670I]. Described as §1. The conditions noted are these: at 1 µM.
Mast/stem cell growth factor receptor Kit (Homo sapiens), P10721 [V559D,T670I], sequence (P10721 whole entry V559D/T670I): as the sequence (P10721 whole entry A829P) above, with V559D, T670I, P829A counted along it
The test system of experiment [7] is Mast/stem cell growth factor receptor Kit (Homo sapiens), P10721 [D816V]. Described as §1. The conditions noted are these: at 1 µM.
Mast/stem cell growth factor receptor Kit (Homo sapiens), P10721 [D816V], sequence (P10721 whole entry D816V): as the sequence (P10721 whole entry A829P) above, with D816V, P829A counted along it
In experiment [8] the target is T2, Ephrin type-B receptor 2 (Homo sapiens) (UniProt P29323).
T2 sequence (whole entry): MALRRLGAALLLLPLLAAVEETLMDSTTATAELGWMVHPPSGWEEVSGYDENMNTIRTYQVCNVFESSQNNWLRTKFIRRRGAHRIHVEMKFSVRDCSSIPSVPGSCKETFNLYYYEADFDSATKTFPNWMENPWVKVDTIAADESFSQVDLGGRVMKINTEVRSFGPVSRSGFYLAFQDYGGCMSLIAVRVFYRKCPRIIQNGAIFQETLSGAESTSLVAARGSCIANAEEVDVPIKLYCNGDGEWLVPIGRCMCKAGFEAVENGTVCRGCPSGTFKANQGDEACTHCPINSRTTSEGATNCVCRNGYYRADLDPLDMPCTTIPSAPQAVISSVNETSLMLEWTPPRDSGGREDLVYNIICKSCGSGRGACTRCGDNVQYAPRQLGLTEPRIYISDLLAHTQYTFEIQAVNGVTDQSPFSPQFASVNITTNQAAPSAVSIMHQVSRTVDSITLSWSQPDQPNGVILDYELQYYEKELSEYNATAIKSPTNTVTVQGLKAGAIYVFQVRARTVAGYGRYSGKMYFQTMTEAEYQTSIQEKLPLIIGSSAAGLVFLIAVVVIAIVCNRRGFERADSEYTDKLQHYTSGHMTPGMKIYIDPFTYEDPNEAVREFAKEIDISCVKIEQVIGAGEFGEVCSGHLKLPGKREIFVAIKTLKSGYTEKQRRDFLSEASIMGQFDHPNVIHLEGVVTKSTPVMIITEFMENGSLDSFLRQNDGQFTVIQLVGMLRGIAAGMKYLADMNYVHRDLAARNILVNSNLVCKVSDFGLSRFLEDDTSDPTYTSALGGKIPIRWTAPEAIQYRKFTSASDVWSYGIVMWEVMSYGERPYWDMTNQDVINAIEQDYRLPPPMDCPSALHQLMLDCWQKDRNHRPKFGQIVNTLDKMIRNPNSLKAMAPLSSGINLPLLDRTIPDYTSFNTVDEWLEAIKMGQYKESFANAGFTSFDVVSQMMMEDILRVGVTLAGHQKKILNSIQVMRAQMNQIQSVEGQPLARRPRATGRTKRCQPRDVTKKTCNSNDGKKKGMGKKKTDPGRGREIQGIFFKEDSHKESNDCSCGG
Description: Selectivity interaction (Kinase screening (Nanosyn)) EUB0000604a EPHB2.

Experiment [9] has as its target Serine/threonine-protein kinase 38 (Homo sapiens) (UniProt Q15208). Description: Selectivity interaction (ActivX KiNativ screen (kinase selectivity in THP-1 cell lysates)) EUB0000639a STK38. The format is subcellular. The conditions noted are these: lysate, at 5 µM.
Experiment [10] concerns the target Wee1-like protein kinase (Homo sapiens) (UniProt P30291). As to the kind of experiment: Selectivity interaction (KinomeScan (DiscoverX)) EUB0000045b WEE1.
For experiment [11], the target named is Casein kinase I isoform alpha (Homo sapiens, UniProt P48729). As to the kind of experiment: Selectivity interaction (Kinase panel (KiNativ target engagement assay in Jurkat cells)) EUB0001635a CSNK1A1. Format: cell-based. The conditions noted are these: Selectivity number of off-targets 0.0, Selectivity number of targets 233.0, Source Knowledge https://www.sciencedirect.com/science/article/pii/S2451945619300674?via%3Dihub, at 1 µM.
Casein kinase I isoform alpha, sequence (P48729 2-337 limits assumed): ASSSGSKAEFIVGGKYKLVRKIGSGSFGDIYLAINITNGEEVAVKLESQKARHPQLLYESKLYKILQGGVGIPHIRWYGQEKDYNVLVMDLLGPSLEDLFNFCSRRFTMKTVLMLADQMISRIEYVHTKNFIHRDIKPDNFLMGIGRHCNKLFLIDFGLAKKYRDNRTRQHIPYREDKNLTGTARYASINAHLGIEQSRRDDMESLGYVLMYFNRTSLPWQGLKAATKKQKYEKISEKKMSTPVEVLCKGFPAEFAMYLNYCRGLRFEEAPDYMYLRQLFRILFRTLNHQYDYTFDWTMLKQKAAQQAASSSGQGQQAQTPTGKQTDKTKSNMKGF

Experiment [12] addresses T3, Dual specificity mitogen-activated protein kinase kinase 7 (Homo sapiens) (UniProt O14733).
T3 sequence (whole entry): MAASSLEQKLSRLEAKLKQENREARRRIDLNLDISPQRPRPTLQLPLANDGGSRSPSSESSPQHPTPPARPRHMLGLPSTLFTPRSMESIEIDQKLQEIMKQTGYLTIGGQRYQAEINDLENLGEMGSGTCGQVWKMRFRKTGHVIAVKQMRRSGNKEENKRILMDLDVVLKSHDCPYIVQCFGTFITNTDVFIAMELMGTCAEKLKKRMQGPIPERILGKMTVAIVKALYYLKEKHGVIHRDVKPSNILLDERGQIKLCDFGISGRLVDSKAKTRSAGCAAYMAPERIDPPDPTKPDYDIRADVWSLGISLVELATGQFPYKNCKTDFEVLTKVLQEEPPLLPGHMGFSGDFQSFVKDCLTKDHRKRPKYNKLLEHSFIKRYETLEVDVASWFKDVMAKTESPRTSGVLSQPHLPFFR
As to the kind of experiment: Selectivity interaction (Kinase panel (KiNativ target engagement assay in Jurkat cells)) EUB0001635a MAP2K7. The format is cell-based. The conditions noted are these: Selectivity number of off-targets 0.0, Selectivity number of targets 233.0, Source Knowledge https://www.sciencedirect.com/science/article/pii/S2451945619300674?via%3Dihub, at 1 µM.

Wee1-like protein kinase (Homo sapiens), sequence (P30291 whole entry, looked up, canonical isoform): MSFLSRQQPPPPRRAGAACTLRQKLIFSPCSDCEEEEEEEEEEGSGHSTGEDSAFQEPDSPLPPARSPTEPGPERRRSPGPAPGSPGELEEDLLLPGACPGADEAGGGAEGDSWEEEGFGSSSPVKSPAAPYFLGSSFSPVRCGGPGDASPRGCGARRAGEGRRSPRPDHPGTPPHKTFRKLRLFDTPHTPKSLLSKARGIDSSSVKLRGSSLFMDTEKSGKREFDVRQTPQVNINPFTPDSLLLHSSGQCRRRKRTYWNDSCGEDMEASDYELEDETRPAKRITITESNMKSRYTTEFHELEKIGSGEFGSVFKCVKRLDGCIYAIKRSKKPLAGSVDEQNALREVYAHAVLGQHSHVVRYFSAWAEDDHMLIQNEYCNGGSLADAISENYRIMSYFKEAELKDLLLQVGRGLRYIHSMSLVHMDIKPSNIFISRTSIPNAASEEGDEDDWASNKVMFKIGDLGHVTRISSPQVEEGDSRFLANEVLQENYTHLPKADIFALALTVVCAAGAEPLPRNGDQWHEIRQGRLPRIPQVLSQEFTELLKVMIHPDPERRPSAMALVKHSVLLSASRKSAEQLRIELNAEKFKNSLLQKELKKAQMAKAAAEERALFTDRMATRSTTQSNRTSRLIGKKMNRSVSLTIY
Mast/stem cell growth factor receptor Kit, sequence (P10721 whole entry): as the sequence (P10721 whole entry A829P) above, with P829A counted along it
Serine/threonine-protein kinase 38 (Homo sapiens), sequence (Q15208 2-465 limits assumed): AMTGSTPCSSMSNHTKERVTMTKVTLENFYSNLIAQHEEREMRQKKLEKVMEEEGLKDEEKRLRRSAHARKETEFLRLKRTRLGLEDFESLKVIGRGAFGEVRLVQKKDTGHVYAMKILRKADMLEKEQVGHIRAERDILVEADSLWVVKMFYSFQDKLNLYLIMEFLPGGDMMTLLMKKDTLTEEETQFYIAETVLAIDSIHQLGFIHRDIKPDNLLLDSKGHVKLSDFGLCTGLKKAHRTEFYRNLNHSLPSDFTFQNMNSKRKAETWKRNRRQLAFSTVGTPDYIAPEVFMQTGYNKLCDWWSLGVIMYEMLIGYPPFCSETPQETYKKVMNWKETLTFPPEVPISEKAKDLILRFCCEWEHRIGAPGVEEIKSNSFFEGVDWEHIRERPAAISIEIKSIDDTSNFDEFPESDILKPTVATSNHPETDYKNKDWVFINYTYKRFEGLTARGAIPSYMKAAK
Mast/stem cell growth factor receptor Kit (Homo sapiens), P10721 [V559D], sequence (P10721 whole entry V559D): as the sequence (P10721 whole entry A829P) above, with V559D, P829A counted along it

`COCC(=O)NC/C=C/c1ccc2ncnc(Nc3ccc(Oc4ccc(C)nc4)c(C)c3)c2c1` [CP-724714]: the % of control in experiment [1] was found to be 0.5%.
Take `N#Cc1cccc(-c2c[nH]c3ncnc(N4CCOCC4)c23)c1`: the % of control in experiment [2] is 100%; in experiment [3] it was 100%; in experiment [4], 50%; in experiment [5] it was 72%; in experiment [6] it was 100%; in experiment [7] it was 99%.
In the case of `Cc1cnc(Nc2ccc(F)cc2Cl)nc1-c1c[nH]c(C(=O)N[C@H](CO)c2cccc(Cl)c2)c1`, the % of inhibition in experiment [8] worked out at 0%.
In [9], `CC[C@@H]1[C@H](F)C(=O)N[C@@H]1COc1nccc2cc(C(N)=O)c(OC)cc12` [ZIMLOVISERTIB] had a % of inhibition of 87.9%.
For the compound `C=CC(=O)Nc1cc(-n2c(=O)ccc3cnc4ccc(-c5ccc(NS(C)(=O)=O)cc5)cc4c32)ccc1C`, the % of control in experiment [10] (at 1 µM) was 100%; in [10] (at 10 µM) it was 92%.
For `C=CC(=O)Nc1ccc(C(=O)Nc2[nH]nc3c2CN(C(=O)N[C@H](CN(C)C)c2ccccc2)C3(C)C)cc1`, the results for the % of engagement in [11] and in experiment [12] were -2% and 22.4%, respectively.
